In patent US20200318079A1, “ACTIVITY-DEPENDENT EXPRESSION CONSTRUCTS AND METHODS OF USING THE SAME” (The Board of Trustees of the Leland Stanford Junior …, priority 2016, published 2020):

System: c-Fos regulatory region
Assay: Activity-dependent expression of a reporter driven by c-Fos regulatory regions
Settings: comparison of three regulatory regions
Description: The activity-dependent expression of a reporter construct driven by a regulatory region containing 761 bp of 5′ mouse c-Fos non-coding sequence, mouse c-Fos exon 1 and mouse c-Fos intron 1, as depicted in FIG. 9 (SEQ ID NO:7) was compared to: (1) the activity-dependent expression of the same reporter driven by the c-Fos 5′-non-coding sequence depicted in FIG. 10 (SEQ ID NO:1) and (2) the activity-dependent expression of the same reporter driven by the entire c-Fos gene followed by an IRES as depicted in FIG. 11 (SEQ ID NO:29).

Substance: SEQ ID NO:7: reporter driven by regulatory region containing 761 bp of 5′ mouse c-Fos non-coding sequence, mouse c-Fos exon 1 and intron 1
- activity-dependent expression of the reporter: best for high, non-leaky expression
